{"source": "patent US8347551B2", "about": "“Method of applying pesticides” (priority 2004, dated 2013)", "origin": "cited, not measured here", "key": {"pest [1]": {"test_system": "pest", "details": "seed treatment; dose giving sufficient control of the pest; dutch registration code no. 11492"}, "pest [2]": {"test_system": "pest", "details": "seed treatment, dose giving sufficient control of the pest"}, "pest [3]": {"test_system": "pest", "details": "seed treatment; dose giving sufficient control of the pest; dutch registration code no. 8672"}, "pest [4]": {"test_system": "pest", "details": "seed treatment; dose giving sufficient control of the pest; dutch registration code no. 8928"}, "pest [5]": {"test_system": "pest", "details": "seed treatment; dose giving sufficient control of the pest; dutch registration code no. 11455"}}, "note": "Like-named read-outs stand apart in the source and are kept apart here."}
{"smiles": "CN(C)C(=S)SSC(=S)N(C)C", "note": "[thiram]", "values": [{"measurement": "Effective Dose", "setting": "pest [1]", "result": 1.6, "unit": "g per kg radish seeds"}]}
{"smiles": "CCOP(=S)(OCC)Oc1nc(Cl)c(Cl)cc1Cl", "note": "[chlorpyriphos]", "values": [{"measurement": "Effective Dose", "setting": "pest [2]; dutch registration code no. 10968", "result": 0.096, "unit": "g per 1000 brassica seeds"}]}
{"smiles": "COC(=O)Nc1nc2ccccc2[nH]1", "note": "[carbendazim]", "values": [{"measurement": "Effective Dose", "setting": "pest [3]", "result": 1, "unit": "g per kg onion seeds"}]}
{"smiles": "CC(C)NC(=O)N1CC(=O)N(c2cc(Cl)cc(Cl)c2)C1=O", "note": "[iprodione]", "values": [{"measurement": "Effective Dose", "setting": "pest [4]", "result": 5, "unit": "g per kg carrot seeds"}]}
{"smiles": "O=[N+]([O-])NC1=NCCN1Cc1ccc(Cl)nc1", "note": "[imidacloprid]", "values": [{"measurement": "Effective Dose", "setting": "pest [5]", "result": 0.8, "unit": "g per 1000 lettuce seeds"}]}
{"smiles": "COCC(=O)N(c1c(C)cccc1C)[C@H](C)C(=O)OC", "note": "[metalaxyl-m]", "values": [{"measurement": "Effective Dose", "setting": "pest [2]; dutch registration code no. 12280", "result": 0.175, "unit": "g per kg brassica seeds"}]}
